This note sets out measurements from patent publication EP0563062B1, “HEXAPEPTIDES DERIVING FROM AGLUCOTEICOPLANIN AND A PROCESS FOR PREPARING THEM” (GRUPPO LEPETIT S.p.A., priority 1990, dated 1992).

What all share (assay): MIC, microdilution method in broth, in comparison with teicoplanin
Format in all cases: cell-based
Background: Broth dilution looks for growth in wells or tubes with falling amounts of substance.

Test [1] deals with two strains of S. aureus and S. epidermidis showing low sensitivity to teicoplanin. Particulars: Iso-Sensitest broth, 18-24 hours at 37°C. As to the method: (§1) The antimicrobial activity, expressed as minimal inhibitory concentration (MIC), of the hexapeptide of formula (I), R = hydrogen, against selected strains of Gram-positive bacteria was determined in comparison with teicoplanin. The microdilution method in Difco Todd-Hewitt broth (Streptococci) or Oxoid Iso-Sensitest broth (Staphylococci) was used.

The subject of test [2] is Staphylococci and Streptococci. Particulars: relative to teicoplanin; inoculum about 10^5 cfu/ml, 18-24 hours at 37°C. Here is the method: as §1
The test system of test [3] is S. epidermidis and S. haemolyticus, two species of Coagulase-Negative Staphylococci (CNS). As to conditions: relative to teicoplanin; Iso-Sensitest broth, inoculum about 10^5 cfu/ml, 18-24 hours at 37°C. Here is the method: as §1

Turning to aglucoteicoplanin hexapeptide, in test [1], the “antimicrobial activity (MIC), fold relative to teicoplanin” value is on record as “four to sixteen times more active”. The “antimicrobial activity, expressed as minimal inhibitory concentration (MIC)” value in test [2] was “generally less active than teicoplanin”; in test [3], “same degree of activity”.
